Article PMC8118497, “Facile synthesis of PEI-based crystalline templated mesoporous silica with molecular chirality for improved oral delivery of the poorly water-soluble drug” (Drug Delivery, 2021)
Read-outs that look alike come from different tables or passages of the source.

Columns and labels:
[1] = system: cerebral anoxia of mice induced by NaNO2; test: In vivo pharmacodynamics: survival time of mice on cerebral anoxia induced by NaNO2; parameters: species or system Kunming mice; conditions: oral dose 0.5 mg NMP (middle dose); NaNO2 i.p. 90 min post administration
Method: The pharmacodynamics study was performed to further evaluating the effect of PEIs@TA-CMS on improving the oral adsorption of NMP. 36 SPF-grade Kunming mice (18–22 g body weight) were assigned into six groups, randomly (n = 6): Normal saline group, NMP group, NMP/PEIs@TA-CMS (low dose) group, NMP/PEIs@TA-CMS (middle dose) group, NMP/PEIs@TA-CMS (high dose) group and NMP/MCM41 group. Before dosing, animals were fasted overnight with free access to water. Animals in the Normal Saline group were received oral treatment of 0.5 mL normal saline, and were considered as negative control. While for NMP group which severed as positive control, 0.5 mg pure NMP was suspended in 0.5 mL normal saline and was imposed to animals. Normal saline suspensions of NMP/PEIs@TA-CMS and NMP/MCM41 containing 0.5 mg NMP were also oral administrated to mice. Meanwhile, half and twice of the dose in NMP/PEIs@TA-CMS (middle dose) group, which were respectively in doses equivalent to 0.25 mg and 1 mg NMP, were given to mice to further study the influence of dose. […] Then the clinic manifestation and survival time of mice was recorded to study the protective effect of NMP formulations on mice cerebral anoxia.

[2] = In vitro release of NMP, USP II paddle method in 0.5% SDS solution; format: physicochemical; conditions: 250 mL, 37 °C, 50 rpm, 10 mg NMP
Method: The in vitro release behavior of samples was assessed by a USP II paddle method on a dissolution apparatus (ZRS-8G, Huanghai Medicament Test Instrument, China). Prewarmed medium of 0.5% (w/v) sodium dodecyl sulfate (SDS) solution (250 mL, 37 °C) was added to the dissolution cup with a stirrer rotation speed of 50 rpm. 10 mg NMP, NMP/MCM41 and NMP/PEIs@TA-CMSs samples containing 10 mg of NMP were suspended in the release medium. 5 mL of aliquots were collected and replaced by an equal volume of fresh isothermal supplement at predetermined time intervals, After filtering through a 0.22 μm membrane filter, the drug release amounts were tested by UV spectroscopy (UV-1750, Shimadzu, Japan) at 238 nm. All in vitro release studies were repeated three times.

[3] = background statement, no reference given; cited from earlier work
[4] = In vivo pharmacokinetics after oral administration; parameters: species or system Sprague-Dawley rats; conditions: rats
Method: Twelve male Sprague-Dawley rats (SD rats, 180–220 g body weight) were randomly divided into three groups (n = 4): NMP group, NMP/PEIs@TA-CMS group and NMP/MCM41 group. Prior to the experiment, animals were fasted overnight with free access to water. The animals were orally administered the water suspensions of NMP, NMP/PEIs@TA-CMS and NMP/MCM4 with a drug dose of 2.5 mg. At appropriate sampling times, aliquot blood sample (about 0.6 mL) was withdrawn via the retro-orbital venous sinus, centrifuged to separate the plasma, and stored at −20 °C.
In the pretreatment procedure, 20 μL of internal standard solution (nitrendipine, 20 μg/mL) was added into 200 μL plasma sample and vortexed for 1 min. Afterwards, 100 μL NaOH (0.01 mol/L) was uniformly mixed with the system and vortexed for 1 min. The drug was extracted by 2.5 mL diethyl ether, vortexed for 5 min, and centrifugated for 12 min to separate the organic layer (2 mL). The organic layer (2 mL) was then transferred to a new tube and evaporated to dryness under a gentle stream of N2. After reconstituting with 100 μL mobile phase, the 20 μL sample was analyzed by high performance liquid chromatography (HPLC) method. The separation procedure was performed on a Kromasil ODS-2C18 column (Thermo ODS-2 Hypersil, 250 mm × 4.6 mm, […], UK) equipped with a JanuSep C18 pre-column (Liaoning, China), and the column temperature was kept at 25 °C. The UV detector was set at 240 nm. The mixture of methanol, acetonitrile and water (3:4:3, v/v/v) was selected as the optimized mobile phase with a flow rate of 1 mL/min. The NMP content was calculated according to internal standard method, and the main pharmacokinetic parameters were obtained using the software of DAS 2.0.

**Q.** With `COCCOC(=O)C1=C(C)NC(C)=C(C(=O)OC(C)C)C1c1cccc([N+](=O)[O-])c1` (stereo not drawn) [NMP, nimodipine] as the molecule, how does the “survival time of mice after injection of NaNO2” value [1] read?
**A.** The value was 14.33 min.

**Q.** What about the “drug release amount within 60 min” value [2] of the same molecule?
**A.** The value was 29.24%.

**Q.** What about the “drug release amount within 240 min” value [2] of the same molecule?
**A.** Its value is 41.32%.

**Q.** And the bioavailability [3]?
**A.** The bioavailability was “lower than 13%”.

**Q.** And the half-life ([4]; male, Sprague-Dawley, rat, plasma, drug dose 2.5 mg)?
**A.** Its half-life is 10.9 ± 1.13 h.

**Q.** What about the MRT inf ([4]; male, Sprague-Dawley, rat, plasma, drug dose 2.5 mg, read-out: MRT0-∞) of the same molecule?
**A.** The MRT inf was 8.84 ± 1.73 h.

**Q.** What about the Cmax ([4]; male, Sprague-Dawley, rat, plasma, drug dose 2.5 mg, read-out: maximum concentration (Cmax)) of the same molecule?
**A.** The Cmax was 100 ng/mL.

**Q.** And the AUC(0-inf) ([4]; male, Sprague-Dawley, rat, plasma, drug dose 2.5 mg, water suspension)?
**A.** Its AUC(0-inf) is 1190 ± 160 ng·h/mL.

**Q.** What about the Cmax ([4]; drug dose 2.5 mg) of the same molecule?
**A.** The Cmax was 100 ± 20 ng/mL.

**Q.** What about the Tmax ([4]; drug dose 2.5 mg) of the same molecule?
**A.** Its Tmax is 0.5 ± 0 h.

**Q.** What about the Relative bioavailability ([4]; drug dose 2.5 mg, relative to pure NMP) of the same molecule?
**A.** Its Relative bioavailability is 100%.

**Q.** And the “time of second plasma concentration peak (double peaks)” value ([4]; post administration, suggests enterohepatic circulation)?
**A.** The value was 8 h.
